Experimental data as given in patent US20240181022A1, “AMURINS LYSINS, AND LYSIN-ANTIMICROBIAL PEPTIDE (AMP) CONSTRUCTS ACTIVE AGAINST GRAM-NEGATIVE BACTERIA” (priority 2021, published 2024).
Like-named read-outs stand apart in the source and are kept apart here. Where no end group is shown, it is not given here.

Key:
M. smegmatis = test: MIC against M. smegmatis; assay type: cell-based, Mycobacterium smegmatis; conditions: M. smegmatis (MC 155); CAAT media
M. abscessus = test: MIC against MDR M. abscessus isolates; assay type: cell-based, Mycobacterium abscessus; conditions: 7 days; for MIC: AST media (CAAT)
A. xylosoxidans [1] = assay type: cell-based, Achromobacter xylosoxidans
Experimental: (§1) MIC values were determined using a modification of the standard broth microdilution reference method defined by the Clinical and Laboratory Standards Institute (CLSI), CLSL. 2015. Methods for Dilution Antimicrobial Susceptibility Tests for Bacteria That Grow Aerobically; Approved Standard-10th Edition. Clinical and Laboratory Standards Institute, Wayne, PA. The modification was based on the replacement of Mueller Hinton Broth with either CAA media (with and without NaCl) or CAA supplemented with 2.5% human serum. MIC is the minimum concentration of peptide sufficient to suppress at least 80% of the bacterial growth compared to control.
(§2) The MICs for were determined as described below using the broth microdilution method for meropenem, GN370, AM1, AM2, and AM3. The results are shown below in Tables 8-12.
The activity of GN370 and AM1 was evaluated against various bacterial isolates, including mucoid and α-hemolytic isolates of P. aeruginosa, MDR isolates, and carbapenem-resistant isolates.

A. dolens = test: MIC by broth microdilution against A. dolens; assay type: cell-based, Achromobacter dolens; conditions: A. dolens isolates
Experimental: as §1
(§3) Based on these nine most prevalent strains, direct lytic agents, including GN370, AM1, AM2, and AM3, were evaluated against various isolates from each of the 9 strains. MICs and MBECs (Example 3) were determined, and a sputum inhibition test was conducted, as described below in Example 5.
as §2

B. cenocepacia = test: MIC by broth microdilution against B. cenocepacia; assay type: cell-based, Burkholderia cenocepacia; conditions: B. cenocepacia isolates
Experimental: as §1, §3, §2

B. gladioli = test: MIC by broth microdilution against B. gladioli; assay type: cell-based, Burkholderia gladioli; conditions: B. gladioli isolates
Experimental: as §1, §3, §2

B. multivorans = test: MIC by broth microdilution against B. multivorans; assay type: cell-based, Burkholderia multivorans; conditions: B. multivorans isolates
Experimental: as §1, §3, §2

S. maltophilia = test: Time-kill assay in cystic fibrosis patient sputum, S. maltophilia; assay type: cell-based, Stenotrophomonas maltophilia
Source text: (§4) Sputum from 5 cystic fibrosis patients was pooled. The resulting mixture was not filtered, as it was very dense and not amenable to sterilization by filtration. Sputum is known to be a complex mixture of DNA, carbohydrates, and lipids ([…], 2016). As used herein, the term “sputum” refers to the mucus present in the respiratory tract of an animal, such as a human. Sputum may increase in thickness due to the irritation or infection, including bacterial infection, and in some instances, may be expelled by the animal while coughing. In certain instances, cystic fibrosis may be characterized by the presence of a thick, sticky mucus or sputum present in the lungs of cystic fibrosis patients. The activity of GN370, AM1, AM2, AM3, and meropenem was determined in the sputum using a time-kill assay format as disclosed in Zhang et al., Antimicrobial peptide therapeutics for cystic fibrosis, Antimicrobial Agents Chemother. 2005; 49(7):2921-2927. […] Untreated controls were included in addition to pretreatment plating (t=0) for a baseline CFU determination. Activity was also determined in the absence of sputum for comparison to activity observed in the presence of sputum.

A. xylosoxidans [2] = test: Time-kill assay in cystic fibrosis patient sputum, A. xylosoxidans; assay type: cell-based, Achromobacter xylosoxidans
Source text: as §4

[3] = system: Gram-negative bacteria (including P. aeruginosa, E. cloacae, K. pneumoniae, E. coli, and A. baumannii); test: Inner membrane depolarization (diSC3-5 release); assay type: cell-based; conditions: equivalent or superior to melittin, LL37, RI-18, and PMBN
Source text: The mechanism of action of Chp peptides disclosed herein can also be evaluated by measuring the depolarization of the inner membrane of Gram-negative bacteria, including MDR and XDR strains. The inner membrane comprises […] phospholipids such as cardiolipin, phosphatidylglycerol, and phosphatidylserine. This creates a net negative charge at physiological pH, which is believed to enhance the binding of cationic peptides, including the Chp peptides disclosed herein. Upon permeabilization of the outer membrane, the ability of Chp peptides to induce dissipation of the cytoplasmic membrane electrical potential gradient (Ay) may be examined, for example by following the release of 3,3′-dipropylthiadicarbocyanine (diSC3-5) as a function of time compared to an untreated control. DiSC3-5 is a fluorophore that is a caged cation concentrated within the bacterial inner membrane and under the influence of the bacterial membrane electrical potential gradient. At high concentrations, diSC3-5 self-quenches, leading to the suppression of fluorescence. When the inner membrane deteriorates or becomes leaky for cations, including protons, the Δψ dissipates, which leads to a release of diSC3-5 and a subsequent increase in fluorescence. […] Without wishing to be bound by theory, it is believed that the adsorption and binding of Chp peptides to the inner membrane and insertion into the lipid bilayer results in membrane permeabilization and pore/ion channel formation, which is concomitant with the collapse of the membrane's electrical potential.

A. ruhlandii = assay type: cell-based, Achromobacter ruhlandii
Experimental: The MBEC (after 2-hour treatments) was determined as described in Jones and Wozniak, PsI Produced by Mucoid Pseudomonas aeruginosa Contributes to the Establishment of Biofilms and Immune Evasion, Am. Soc. Microbiol. 2017, 8(3):e00864-17. Meropenem and tobramycin were included as controls and were both poorly active, with MBEC90 values of >256 μg/mL (data not shown).

## MRLKMARRRYRLPRRRSRRLFSRTALRMHPRNRLRRIMRGGIRF [AM1]
M. smegmatis
  MIC: 4 mg/L
M. abscessus; 5 clinical MDR strains and 1 ATCC strain, CAAT
  activity (MIC) against M. abscessus: highly active
M. abscessus; M. abscessus strain BK51402
  MIC: 1 mg/L
M. abscessus; M. abscessus strain BK51403 (ATCC 19977)
  MIC: 2 mg/L
M. abscessus; M. abscessus strain BK51408
  MIC: 4 mg/L
M. abscessus; M. abscessus strain BK55096
  MIC: 1 mg/L
M. abscessus; M. abscessus strain BK55691
  MIC: 1 mg/L
M. abscessus; M. abscessus strain BK58156
  MIC: 2 mg/L
A. xylosoxidans [1]
  AM1 MIC50: 0.5 mg/L
  AM1 MIC90: 1 mg/L
  MIC50: 1 mg/L
  MIC90: 4 mg/L
A. xylosoxidans [1]; A. xylosoxidans isolates
  MIC50: 0.5 mg/L
  MIC90: 2 mg/L
A. xylosoxidans [1]; A. xylosoxidans isolates, in µg/mL
  MIC Range: 0.016-4
A. xylosoxidans [1]; A. xylosoxidans test organism of the sputum time-kill assay
  MIC: AM1 (MIC = 0.5)
A. xylosoxidans [1]; MDR A. xylosoxidans isolates (n = 14), in µg/mL
  MIC Range: 0.5-4
A. xylosoxidans [1]; carbapenem-resistant A. xylosoxidans isolates (n = 7), in µg/mL
  AM1 MIC Range: 0.06225-1
A. dolens
  MIC50: 1 mg/L
  MIC90: 2 mg/L
A. dolens; in µg/mL
  MIC Range: 0.06-4
B. cenocepacia
  MIC50: > 128 mg/L
  MIC90: > 128 mg/L
B. gladioli
  MIC50: 8 mg/L
  MIC90: 64 mg/L
B. gladioli; in µg/mL
  MIC Range: 0.03-128
B. multivorans
  MIC50: 128 mg/L
  MIC90: > 128 mg/L
S. maltophilia; 10% CF sputum vs no sputum
  effect of sputum on antibacterial activity: none of GN370, AM1, AM2, and AM3 was inhibited
S. maltophilia; absence of sputum, 1 hr
  Log10 CFU/mL of sputum: 2.3 Log10 CFU/mL of sputum
S. maltophilia; absence of sputum, 3 hr
  Log10 CFU/mL of sputum: 2.3 Log10 CFU/mL of sputum
S. maltophilia; absence of sputum, 24 hr
  Log10 CFU/mL of sputum: 2.3 Log10 CFU/mL of sputum
S. maltophilia; presence of 10% sputum, 1 hr
  Log10 CFU/mL of sputum: 2.3 Log10 CFU/mL of sputum
S. maltophilia; presence of 10% sputum, 3 hr
  Log10 CFU/mL of sputum: 2.3 Log10 CFU/mL of sputum
S. maltophilia; presence of 10% sputum, 24 hr
  Log10 CFU/mL of sputum: 2.3 Log10 CFU/mL of sputum
S. maltophilia; time-kill
  killing by 1 hour, maintained at 24 hours: complete killing
A. xylosoxidans [2]; 10% CF sputum vs no sputum
  effect of sputum on antibacterial activity: none of GN370, AM1, AM2, and AM3 was inhibited
A. xylosoxidans [2]; absence of sputum, 1 hr
  Log10 CFU/mL of sputum: 2.3 Log10 CFU/mL of sputum
A. xylosoxidans [2]; absence of sputum, 3 hr
  Log10 CFU/mL of sputum: 2.3 Log10 CFU/mL of sputum
A. xylosoxidans [2]; absence of sputum, 24 hr
  Log10 CFU/mL of sputum: 2.3 Log10 CFU/mL of sputum
A. xylosoxidans [2]; presence of 10% sputum, 1 hr
  Log10 CFU/mL of sputum: 2.3 Log10 CFU/mL of sputum
A. xylosoxidans [2]; presence of 10% sputum, 3 hr
  Log10 CFU/mL of sputum: 2.3 Log10 CFU/mL of sputum
A. xylosoxidans [2]; presence of 10% sputum, 24 hr
  Log10 CFU/mL of sputum: 2.3 Log10 CFU/mL of sputum
A. xylosoxidans [2]; time-kill
  killing by 1 hour, maintained at 24 hours: complete killing
[3]
  inner membrane depolarization (diSC3-5): dose-dependent increase in membrane depolarization
A. ruhlandii
  MBEC50: 16 µg/mL
  MBEC90: 16 µg/mL
  MBEC Range: 2 to 16 µg/mL
